Experimental data from patent US6800794B1, “Nucleic acid comprising the sequence of a promoter unductible by stress and a gene sequence coding for a stilbene synthase” (Champagne Moet & Chandon, priority 1998, dated 2004).

How the values were obtained:
[1] = test system: Botrytis cinerea mycelium, strain 916T; test: Inhibition of the growth of Botrytis cinerea mycelium on malt medium containing resveratrol; assay type: cell-based
Method: FIG. 9: Inhibition of the growth of Botrytis cinerea mycelium, strain 916T, after 7 days at 20° C.
The mycelium is cultured on a malt/glucose medium containing different concentrations of resveratrol.
A study was carried out of the action of the molecule on the growth of mycelial hyphae of Botrytis cinera in culture on a malt/agar medium containing a resveratrol dilution range of from 10^−1 M to 3.7.10^−3 M, with the hyphae being incubated at ambient temperature for 7 days. […] However, this inhibition […] progressively after 7 days of culture under these conditions, which are otherwise very favourable to the growth of the fungus. After 20 days, the fungus finally infects the whole of the culture surface.

Botrytis cinerea conidia = details: according to PONT and PEZET (1990); cited from earlier work
[2] = test system: zoospores of Plasmopora viticola; details: according to DAÏ (1994); cited from earlier work

Oc1ccc(C=Cc2cc(O)cc(O)c2)cc1 [resveratrol]
IC50 ([1]; Botrytis cinerea, 168 h, read-out: inhibitory effect on growth of mycelial hyphae (IC50), malt/agar medium, 7 days, ambient temperature (FIG. 9: 20° C.)): 500 µM
inhibitory activity on the growth of the mycelium ([1]; at 37 μmol.^−1, 7 days): very slight inhibitory activity
concentrations giving an exponential decrease in the mean growth diameter of the fungus ([1]; malt/agar medium, 7 days): greater than 125 μmol.1^−1
blocking of germination of conidia (Botrytis cinerea conidia): does not block
effect on the development of the zoospores [2]: inhibitory effect
